Source: patent US12037324B2, “Biarylmethyl heterocycles” (Université de Montréal, priority 2016, dated 2024)

Assays:
Type in all cases: cell-based
AGTR1 [1] = molecular target: T1, AGTR1 (Homo sapiens, UniProt P30556); assay: DiscoveRx IP1 accumulation assay (HTRF), agonist mode, Pathunter CHO-K1 AGTR1 β-arrestin cell line; conditions: for EC50: read-out: IP-1 EC50
T1 construct: host or cells: Pathunter CHO-K1 AGTR1 β-arrestin cell line (CHO-K1)
T1 sequence (P30556 1-359): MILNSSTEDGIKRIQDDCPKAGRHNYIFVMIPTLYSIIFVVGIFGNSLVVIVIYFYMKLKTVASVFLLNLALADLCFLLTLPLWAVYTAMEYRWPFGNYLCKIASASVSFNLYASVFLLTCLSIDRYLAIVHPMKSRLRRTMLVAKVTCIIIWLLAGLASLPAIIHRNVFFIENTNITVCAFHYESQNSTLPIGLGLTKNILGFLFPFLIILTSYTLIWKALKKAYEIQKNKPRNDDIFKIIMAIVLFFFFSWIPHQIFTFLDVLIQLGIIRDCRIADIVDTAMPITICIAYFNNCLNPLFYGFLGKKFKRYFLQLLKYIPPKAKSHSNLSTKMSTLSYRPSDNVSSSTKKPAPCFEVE
Method: In one aspect of the invention, signaling bias of compounds was assessed by comparing the relative activity of compounds to activate both the β-arrestin and Gq signaling pathways. In order to confirm signaling bias, compounds were studied in two different assay formats.
DiscoveRx β-arrestin2 Recruitment and IP1 Assays
Gq activation can be assessed by measuring the accumulation of inositol phosphates (e.g. IP3, IP1) that are liberated following activation of phospholipase C by Gq (Thomsen, Frazer et al. 2005). In the current invention we have utilized the DiscoveRx Pathunter CHO-K1 AGTR1 β-arrestin cell line to also measure IP1 accumulation in response to compounds. IP1 accumulation was measured in both agonist and antagonist modes. In agonist mode, cells are plated as above 14-16 hours before the experiment. The medium is then removed and compounds at varying concentrations added in a final volume of 20 μl. The cells are incubated at 37° C. for 90 min. IP1 accumulation detected using a commercial HTRF assay according to manufacturer's instructions (Cisbio, Bedford, MA). Specifically, 4 μl of D2-conjugate solution (diluted 1:20 in Cisbio HTRF assay buffer) is added to each well, followed by the addition of 4 μl of anti-IP1 cryptate diluted 1:20 in HTRF assay buffer and the plates incubated for 20 min at room temperature. 14 μl from each well is measured using an Envision multi-label reader and data processed using Toolset for Runmaster QCMulti. Concentration-response curves are fitted and EC50s (agonist mode) and IC50s (antagonist mode) estimated using a 4-parameter logistic equation. Compound activities are reported as a relative percentage to the maximal effect of All in the assays.

AGTR1 [2] = molecular target: T1, AGTR1; assay: DiscoveRx β-arrestin2 recruitment assay (enzyme complementation, Pathunter CHO-K1 AGTR1 β-arrestin cell line); conditions: DiscoveRx β-arrestin2 recruitment; for DiscoveRx β-arrestin2 Ymax (%): maximal response
Method: In one aspect of the invention, signaling bias of compounds was assessed by comparing the relative activity of compounds to activate both the β-arrestin and Gq signaling pathways. In order to confirm signaling bias, compounds were studied in two different assay formats. DiscoveRx β-arrestin2 Recruitment and IP1 Assays β-arrestin2 recruitment to activated receptors can be assessed using an enzyme complementation method (Zhao, Jones et al. 2008). […] Cells (5000/well) were plated into 1536 well plates (Cellocoat plates, Greiner Bio One, Monroe, NC) 14-16 hours before each experiment in 20 μl DMEM/F12 medium (Thermo-Fisher Scientific, Carlsbad, CA) containing heat-inactivated 1% fetal bovine serum. Subsequently, the compounds of interest were added at varying concentrations to the wells in a volume of 200 nl and the cells incubated for 90 min at 37° C. The detection reagent (10 μl) was added to each well and the plates incubated at room temperature for 1 hour before measurement of chemiluminescence using an EnVision Multilabel Reader (Perkin-Elmer, Waltham, MA). The data are processed using Toolset for Runmaster QCMulti. Concentration-response curves are fitted and EC50s (agonist mode) and IC50s (antagonist mode) estimated using a 4-parameter logistic equation. Compound activities are reported as a relative percentage to the maximal effect of All in the assays.

hAT1R = molecular target: T2, hAT1R (Homo sapiens, UniProt P30556); assay: BRET β-arrestin2 biosensor assay, higher receptor expression (hAT1R 5 ng/well), HEK293 cells; conditions: for EC50: High AT1R Expression
T2 sequence (P30556 1-359): T1 sequence (P30556 1-359)

Structure (SMILES) | IP-1 Ymax (%) (AGTR1 [1]) | EC50 (AGTR1 [1]) [nM] | EC50 (AGTR1 [2]) [nM] | DiscoveRx β-arrestin2 Ymax (%) (AGTR1 [2]) | BRET β-Arrestin2 High AT1R Expression Ymax (%) (hAT1R) | EC50 (hAT1R) [nM]
CCCCOC(=O)NS(=O)(=O)c1sc(-c2cccnc2OC)cc1-c1ccc(Cn2c(CC)nc3c(C)cc(C)nc32)cc1 [Example 47, Butyl (3-(4-((2-ethyl-5,7-dimethyl-3H-imidazo[4,5-b]pyridin-3-yl)methyl)phenyl)-5-(2-methoxypyridin-3-yl)thiophen-2-yl)sulfonylcarbamate] | 3.8 | 6.2 | 10.1 | 24.5 | 56.6 | 14.7
CCc1nc2c(C)cc(C)nc2n1Cc1ccc(-c2cc(C3CCCCN3)ccc2-c2nn[nH]n2)cc1 (single isomer, unassigned) [Example 75, 2-ethyl-5,7-dimethyl-3-((5′-(piperidin-2-yl)-2′-(2H-tetrazol-5-yl)-[1,1′-biphenyl]-4-yl)methyl)-3H-imidazo[4,5-b]pyridine] | – | > 100000 | 543 | 7.1 | 53.9 | 1120
CCc1nc2c(C)cc(C)nc2n1Cc1ccc(-c2cc(N(C)c3ccccc3)ccc2-c2nn[nH]n2)cc1 [Example 94] | 9.0 | 32.7 | 13.1 | 35.9 | 76.8 | 20.8
CCCCC1=NC2(CCCC2)C(=O)N1Cc1ccc(-c2cc(N3CCC(C)CC3)ccc2-c2nn[nH]n2)cc1 [Example 100] | 6.1 | 49.9 | 28.8 | 12.7 | 19.4 | 155
CCCCC1=NC2(CCCC2)C(=O)N1Cc1ccc(-c2cc(-c3ccsn3)ccc2-c2nn[nH]n2)cc1 [Example 123, 2-butyl-3-((5′-(isothiazol-3-yl)-2′-(2H-tetrazol-5-yl)-[1,1′-biphenyl]-4-yl)methyl)-1,3-diazaspiro[4.4]non-1-en-4-one] | – | > 100000 | 9.7 | 4.9 | 20.6 | 65.3
CCCCC1=NC2(CCCC2)C(=O)N1Cc1ccc(-c2cc(-n3ccc4ccc(F)cc43)ccc2-c2nn[nH]n2)cc1 [Example 109] | – | > 100000 | 19.6 | 17.4 | 59.9 | 73.1
CCCCC1=NC2(CCCC2)C(=O)N1Cc1ccc(-c2cc(-c3ccccc3)ccc2C(=O)O)cc1 [Example 145, 4″-((2-butyl-4-oxo-1,3-diazaspiro[4.4]non-1-en-3-yl)methyl)-[1,1′:3′,1″-terphenyl]-4′-carboxylic acid] | 3.1 | 57.1 | 27.3 | 36.3 | 81.5 | 64.4
CCCCC1=NC2(CCCC2)C(=O)N1Cc1ccc(-c2cc(-c3cccs3)ccc2-c2nn[nH]n2)cc1 [Example 131] | – | > 100000 | 13.7 | 19.1 | 42.5 | 49
CCc1nc2c(C)cc(C)nc2n1Cc1ccc(-c2cc(N3CC(C)(C)c4ccccc43)ccc2-c2nn[nH]n2)cc1 [Example 84] | 6.6 | 126 | 91.6 | 35.3 | 88.9 | 36.4
CCc1nc2c(C)cc(C)nc2n1Cc1ccc(-c2cc(-c3cnn(C)c3)ccc2-c2nn[nH]n2)cc1 [Example 21] | 6.9 | 77.3 | 22.1 | 21.1 | 64.0 | 51.4
CCCCc1nc(Cl)c(CO)n1Cc1ccc(-c2cc(-c3ccccc3)ccc2-c2nnn[nH]2)cc1 [Example 35, (1-((6′-(1H-Tetrazol-5-yl)-[1,1′:3′,1″-terphenyl]-4-yl)methyl)-2-butyl-4-chloro-1H-imidazol-5-yl)methanol] | – | > 50000 | 64 | 28.2 | 76.7 | 148
CCCCC1=NC2(CCCC2)C(=O)N1Cc1ccc(-c2cc(N3CC(C)(C)c4ccccc43)ccc2-c2nn[nH]n2)cc1 [Example 107] | – | > 100000 | 26.7 | 24.6 | 54.3 | 226
CCc1nc2c(C)cc(C)nc2n1Cc1ccc(-c2cc(C3=NCCC3)ccc2-c2nn[nH]n2)cc1 [Example 77, 3-((5′-(3,4-dihydro-2H-pyrrol-5-yl)-2′-(2H-tetrazol-5-yl)-[1,1′-biphenyl]-4-yl)methyl)-2-ethyl-5,7-dimethyl-3H-imidazo[4,5-b]pyridine] | 7.1 | 204 | 60.2 | 21.1 | 77.1 | 90.6
CCCCC1=NC2(CCCC2)C(=O)N1Cc1ccc(-c2cc(-c3ccc(OC(F)F)cn3)ccc2-c2nn[nH]n2)cc1 [Example 136] | 18.1 | 14.4 | 4.9 | 43.2 | 94.2 | 9.9
CCc1nc2c(C)cc(C)nc2n1Cc1ccc(-c2cc(-c3cccc(C(=O)N(C)C)c3)ccc2-c2nn[nH]n2)cc1 [Example 23] | 7.3 | 211 | 54.1 | 26.8 | 66.3 | 170
CCc1nc2c(C)cc(C)nc2n1Cc1ccc(-c2cc(N3CCC(F)(F)C3)ccc2-c2nn[nH]n2)cc1 [Example 51] | 3.7 | 92.1 | 21.2 | 21.1 | 43.8 | 99
CCc1nc2c(C)cc(C)nc2n1Cc1ccc(-c2cc(N3C(=O)c4ccccc4C3=O)ccc2-c2nn[nH]n2)cc1 [Example 27, 2-(4′-((2-ethyl-5,7-dimethyl-3H-imidazo[4,5-b]pyridin-3-yl)methyl)-6-(2H-tetrazol-5-yl)-[1,1′-biphenyl]-3-yl)isoindoline-1,3-dione] | – | > 100000 | 206 | 10.6 | 20.1 | 89.5
CCCCC1=NC2(CCCC2)C(=O)N1Cc1ccc(-c2cc(-c3ccccc3)ccc2-c2noc(=O)[nH]2)cc1 [Example 143, 3-(4″-((2-butyl-4-oxo-1,3-diazaspiro[4.4]non-1-en-3-yl)methyl)-[1,1′:3′,1″-terphenyl]-4′-yl)-1,2,4-oxadiazol-5(4H)-one] | 5.2 | 18.3 | 8.4 | 47.4 | 94.6 | 8.2
CCCCC(=O)N(Cc1ccc(-c2cc(-c3ccccc3)ccc2-c2nn[nH]n2)cc1)[C@H](C(=O)O)C(C)C [Example 34, (S)-2-(N-((6′-(2H-Tetrazol-5-yl)-[1,1′:3′,1″-terphenyl]-4-yl)methyl)pentanamido)-3-methylbutanoic acid] | 3.8 | 178 | 40.3 | 35.6 | 68.4 | 50.6
